The results in this text go back to patent publication US20090012103A1, “SUBSTITUTED HETEROCYCLIC COMPOUNDS” (priority 2007, published 2009).

Structures are written as SMILES.

wild-type human cardiac sodium channel, hNav1.5, sequence (Q14524 whole entry): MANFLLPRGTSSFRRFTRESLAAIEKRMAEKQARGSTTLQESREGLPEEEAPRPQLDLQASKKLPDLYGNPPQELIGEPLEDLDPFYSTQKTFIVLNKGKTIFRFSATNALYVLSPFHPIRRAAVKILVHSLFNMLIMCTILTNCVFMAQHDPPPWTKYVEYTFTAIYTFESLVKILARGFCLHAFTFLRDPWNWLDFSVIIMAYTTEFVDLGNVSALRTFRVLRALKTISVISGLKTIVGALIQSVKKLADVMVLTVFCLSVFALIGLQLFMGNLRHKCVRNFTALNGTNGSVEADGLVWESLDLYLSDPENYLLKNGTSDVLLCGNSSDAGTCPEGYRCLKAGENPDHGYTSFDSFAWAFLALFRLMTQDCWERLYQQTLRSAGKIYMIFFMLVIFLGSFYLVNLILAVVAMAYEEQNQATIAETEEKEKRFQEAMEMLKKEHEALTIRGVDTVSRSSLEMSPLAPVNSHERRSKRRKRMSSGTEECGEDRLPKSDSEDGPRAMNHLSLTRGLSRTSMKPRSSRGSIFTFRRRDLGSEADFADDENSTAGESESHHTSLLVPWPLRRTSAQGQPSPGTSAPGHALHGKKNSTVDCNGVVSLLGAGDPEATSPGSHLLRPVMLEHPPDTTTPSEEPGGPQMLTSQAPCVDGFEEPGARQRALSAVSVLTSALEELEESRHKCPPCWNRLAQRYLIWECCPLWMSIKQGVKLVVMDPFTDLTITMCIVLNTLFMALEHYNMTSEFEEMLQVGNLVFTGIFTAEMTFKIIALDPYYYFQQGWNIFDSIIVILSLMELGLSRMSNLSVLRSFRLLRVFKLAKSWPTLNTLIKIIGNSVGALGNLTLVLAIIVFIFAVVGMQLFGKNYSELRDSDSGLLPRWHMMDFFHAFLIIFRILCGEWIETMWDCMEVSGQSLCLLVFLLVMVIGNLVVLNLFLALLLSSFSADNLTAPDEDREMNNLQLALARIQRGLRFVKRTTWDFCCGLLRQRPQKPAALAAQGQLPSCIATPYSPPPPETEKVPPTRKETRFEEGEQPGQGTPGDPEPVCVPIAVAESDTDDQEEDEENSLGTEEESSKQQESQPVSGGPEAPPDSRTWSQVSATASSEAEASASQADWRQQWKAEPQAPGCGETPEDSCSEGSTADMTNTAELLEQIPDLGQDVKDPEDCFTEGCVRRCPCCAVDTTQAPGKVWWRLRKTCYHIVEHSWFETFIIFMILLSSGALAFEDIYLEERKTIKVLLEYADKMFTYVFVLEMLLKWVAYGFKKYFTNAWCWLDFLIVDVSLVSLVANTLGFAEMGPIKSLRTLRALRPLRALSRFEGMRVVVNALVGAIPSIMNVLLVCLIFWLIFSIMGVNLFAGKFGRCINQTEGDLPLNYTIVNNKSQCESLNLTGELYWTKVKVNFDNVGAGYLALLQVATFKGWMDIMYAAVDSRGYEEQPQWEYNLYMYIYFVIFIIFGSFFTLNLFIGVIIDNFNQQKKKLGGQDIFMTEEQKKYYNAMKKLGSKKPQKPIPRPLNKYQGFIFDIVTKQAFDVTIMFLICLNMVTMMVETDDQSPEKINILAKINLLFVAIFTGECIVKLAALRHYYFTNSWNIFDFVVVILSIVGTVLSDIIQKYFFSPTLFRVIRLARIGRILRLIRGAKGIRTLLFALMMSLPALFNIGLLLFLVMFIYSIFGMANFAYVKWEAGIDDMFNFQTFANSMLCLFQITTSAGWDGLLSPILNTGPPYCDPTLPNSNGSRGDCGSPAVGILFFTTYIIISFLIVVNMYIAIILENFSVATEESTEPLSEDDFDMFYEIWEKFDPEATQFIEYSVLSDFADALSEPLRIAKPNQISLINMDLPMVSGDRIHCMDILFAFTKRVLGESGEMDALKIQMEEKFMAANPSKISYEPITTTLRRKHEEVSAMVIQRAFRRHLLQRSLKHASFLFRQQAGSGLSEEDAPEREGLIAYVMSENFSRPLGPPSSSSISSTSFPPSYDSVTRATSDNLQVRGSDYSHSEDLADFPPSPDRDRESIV

The target of the first test is wild-type human cardiac sodium channel, hNav1.5 (Homo sapiens, UniProt Q14524). The test can be described thus: Late INa screening assay (late sodium current, PatchXpress whole cell patch clamp). It counts as cell-based. Conditions: compound at 10 μM; read-out: Late INa % blk. As for the experimental part:
The late sodium current (Late INa) and peak sodium current (Peak INa) assays are performed on an automated electrophysiology platform, PatchXpress 7000A (MDS Analytical Technologies, Sunnyvale, Calif.), which uses the whole cell patch clamp technique to measure currents through the cell membrane of up to 16 cells at a time. The assay uses an HEK293 (human embryonic kidney) cell line heterologously expressing the wild-type human cardiac sodium channel, hNav1.5, purchased from Millipore (Billerica, Mass.). No beta subunits were coexpressed with the Na channel alpha subunit. […] Experiments are carried out at 24-27° C.
For both the Late INa and Peak INa assays, series resistance compensation is set to 50% and whole-cell compensation is performed automatically. […] Currents through open sodium channels are automatically recorded and stored in the DataXpress2 database (MDS Analytical Technologies, Sunnyvale, Calif.). Analysis is performed using DataXpress2 analysis software and data are compiled in Excel.
Compound stocks are routinely made in glass vials to 10 mM in dimethyl sulfoxide (DMSO). In some cases, when compounds are not soluble in DMSO, they are made in 100% ethanol. Stocks are sonicated as necessary. The extracellular solution for screening Late INa is composed of: 140 mM NaCl, 4 mM KCl, 1.8 mM CaCl2, 0.75 mM MgCl2, and 5 mM HEPES with pH adjusted to 7.4 using NaOH. The extracellular solution for screening Peak INa is composed of: 20 mM NaCl, 120 mM N-methyl-D glucamine, 4 mM KCl, 1.8 mM CaCl2, 0.75 mM MgCl2, and 5 mM HEPES with pH adjusted to 7.4 using HCl. The intracellular solution used to perfuse the inside of the cells for both the Late INa and Peak INa assays contains: 120 mM CsF, 20 mM CsCl, 5 mM EGTA, 5 mM HEPES and pH adjusted to 7.4 with CsOH. Compounds are diluted in extracellular solution to 10 μM in glass vials and then transferred to glass well plates before robotic addition to the cells. The 0 Na extracellular solution used at the end of each experiment for the Late INa and Peak INa assays to measure baseline current contains: 140 mM N-methyl-D-glucamine; 4 mM KCl; 1.8 mM CaCl2; 0.75 mM MgCl2; 5 mM HEPES and pH was adjusted to 7.4 with HCl.
For the Late INa assay, sodium channels are activated every 10 seconds (0.1 Hz) by depolarizing the cell membrane to −20 mV for 250 milliseconds (ms) from a holding potential of −120 mV.
All compounds are tested to determine their activity in blocking the late sodium current. Late INa current is generated by adding 10 μM Tefluthrin (pyrethroid) to the extracellular solution while recording Na currents. […] For some experiments, 50 nM ATX II (sea anemone toxin), another late INa activator, was used to generate the late component. […] Baseline current in the absence of Na^+ ions is measured at the end of each experiment (after two additions of 0 Na solution-see above) and is used to calculate the percent block by compound.
On the technique in general: In patch-clamp work, channel activity is measured electrically.
For `Cc1nn(-c2ccccc2)c2c1C(c1cccc3ccccc13)C1=C(COC1=O)N2` (stereo not shown) [PT-083, 3-methyl-4-(naphthalen-1-yl)-1-phenyl-7,8-dihydro-1H-furo[3,4-e]pyrazolo[3,4-b]pyridin-5(4H)-one], the inhibition at 10 µM came out at 30%.
On the same count and under the same terms, the same measure for `COC(=O)c1ccc(C2C(C(=O)OCc3ccccc3)=C(C)Nc3nnnn32)cc1` (stereo not shown) [PT-412, benzyl 7-(4-(methoxycarbonyl)phenyl)-5-methyl-4,7-dihydrotetrazolo[1,5-a]pyrimidine-6-carboxylate]: 27.6%; for `CC1=C(C(=O)OCc2ccccc2)C(c2ccccc2OCc2ccccc2)C2=C(CCCC2=O)N1` (stereo not shown) [PT-328, benzyl 4-(2-(benzyloxy)phenyl)-2-methyl-5-oxo-1,4,5,6,7,8-hexahydroquinoline-3-carboxylate]: 58.1%; for `CC1=C(C(=O)OCc2ccccc2)[C@@H](c2ccccc2-c2cccc(C(N)=O)c2)n2nnnc2N1` [PT-238, (R)-benzyl 7-(3′-carbamoylbiphenyl-2-yl)-5-methyl-4,7-dihydrotetrazolo[1,5-a]pyrimidine-6-carboxylate]: 49.9%.
On the same count and under the same terms, the same measure for `CC1=C(C(=O)OCc2ccccc2)C(c2ccc(SC(F)(F)F)cc2)n2nnnc2N1` (stereo not shown) [PT-359, benzyl 5-methyl-7-(4-(trifluoromethylthio)phenyl)-4,7-dihydrotetrazolo[1,5-a]pyrimidine-6-carboxylate]: 21.3%; for `CCOC(=O)C1=C(C)NC2=C(C(=O)CCC2)C1c1ccccc1-c1ccc(C(N)=O)cc1` (stereo not shown) [PT-455, ethyl 4-(4′-carbamoylbiphenyl-2-yl)-2-methyl-5-oxo-1,4,5,6,7,8-hexahydroquinoline-3-carboxylate]: 9%.
`CC1=C(C(=O)OCc2ccccc2)C(c2cccc3ncccc23)n2nnnc2N1` (stereo not shown) [PT-038, benzyl 5-methyl-7-(quinolin-5-yl)-4,7-dihydrotetrazolo[1,5-a]pyrimidine-6-carboxylate]: the inhibition at 10 µM worked out at 11.9%.
On the same count and under the same terms, as for `COC(=O)c1ccc(C2C(C(=O)OCc3ccccc3)=C(C)Nc3nnnn32)c([N+](=O)[O-])c1` (stereo not shown) [PT-411, benzyl 7-(4-(methoxycarbonyl)-2-nitrophenyl)-5-methyl-4,7-dihydrotetrazolo[1,5-a]pyrimidine-6-carboxylate], the figure is 11.4%; as for `CCOC(=O)C1=C(C)Nc2[nH]ncc2C1c1cccc(Oc2ccccc2)c1` (stereo not shown) [PT-470, ethyl 6-methyl-4-(3-phenoxyphenyl)-4,7-dihydro-1H-pyrazolo[3,4-b]pyridine-5-carboxylate], 26%.
The same measure, in the same setting: the same measure for `CCOC(=O)C1=C(C)Nc2[nH]ncc2C1c1c(OC)cccc1OC` (stereo not shown) [PT-446, ethyl 4-(2,6-dimethoxyphenyl)-6-methyl-4,7-dihydro-1H-pyrazolo[3,4-b]pyridine-5-carboxylate]: 7%.
Still for that read-out and setting: the same measure for `CCOC(=O)C1=C(C)N(CC(=O)O)c2nnnn2C1c1cccc2ccccc12` (stereo not shown) [PT-258, 2-(6-(ethoxycarbonyl)-5-methyl-7-(naphthalen-1-yl)tetrazolo[1,5-a]pyrimidin-4(7H)-yl)acetic acid]: 1.6%; for `CC1=C(C(=O)OCc2ccccc2)[C@@H](c2ccccc2-c2cccc(C#N)c2)n2nnnc2N1` [PT-239, (R)-benzyl 7-(3′-cyanobiphenyl-2-yl)-5-methyl-4,7-dihydrotetrazolo[1,5-a]pyrimidine-6-carboxylate]: 94.8%.
`CC1=C(C(=O)OCc2ccccc2)C(c2cc3ccccc3s2)n2nnnc2N1` (stereo not shown) [PT-043, benzyl 7-(benzo[b]thiophen-2-yl)-5-methyl-4,7-dihydrotetrazolo[1,5-a]pyrimidine-6-carboxylate]: the inhibition at 10 µM came to 53.8%.
The same measure, in the same setting: the same measure for `CC1=C(C(=O)OCc2cccs2)C(c2cccc3ccccc23)n2nnnc2N1` (stereo not shown) [PT-525, thiophen-2-ylmethyl 5-methyl-7-(naphthalen-1-yl)-4,7-dihydrotetrazolo[1,5-a]pyrimidine-6-carboxylate]: 67.5%; for `COC(=O)C1=C(C)Nc2cc(C)nn2C1c1nc(C)cs1` (stereo not shown) [PT-507, methyl 2,5-dimethyl-7-(4-methylthiazol-2-yl)-4,7-dihydropyrazolo[1,5-a]pyrimidine-6-carboxylate]: 0.2%; for `CC1=C(C(=O)OC(C)C)C(c2cc(-c3ccccc3)cs2)C2=C(CC(C)(C)CC2=O)N1` (stereo not shown) [PT-159, isopropyl 2,7,7-trimethyl-5-oxo-4-(4-phenylthiophen-2-yl)-1,4,5,6,7,8-hexahydroquinoline-3-carboxylate]: 46.3%.
The same measure, in the same setting: the same measure for `CCOC(=O)C1=C(C)NC2=C(C(=O)CCC2)C1c1ccccc1-c1ccc(C(=O)O)cc1` (stereo not shown) [PT-250, 2′-(3-(ethoxycarbonyl)-2-methyl-5-oxo-1,4,5,6,7,8-hexahydroquinolin-4-yl)biphenyl-4-carboxylic acid]: 7.6%; for `CC1=C(C(=O)OCc2ccccc2)C(c2cccc3ccccc23)c2c(-c3ccc(C)cc3)n[nH]c2N1` (stereo not shown) [PT-077, benzyl 6-methyl-4-(naphthalen-1-yl)-3-p-tolyl-4,7-dihydro-1H-pyrazolo[3,4-b]pyridine-5-carboxylate]: -2.6%.
Regarding `CC1=C(C(=O)OCc2ccccc2)C(c2ccc3c(c2)OCCO3)n2nnnc2N1` (stereo not shown) [PT-035, benzyl 7-(2,3-dihydrobenzo[b][1,4]dioxin-6-yl)-5-methyl-4,7-dihydrotetrazolo[1,5-a]pyrimidine-6-carboxylate], the inhibition at 10 µM amounted to 44%.
On the same count and under the same terms, as for `CCOC(=O)C1=C(C)Nc2nnnn2C1c1ccccc1-c1ccc(C#N)cc1` (stereo not shown) [PT-503, ethyl 7-(4′-cyanobiphenyl-2-yl)-5-methyl-4,7-dihydrotetrazolo[1,5-a]pyrimidine-6-carboxylate], the figure is 29.2%; as for `CCOC(=O)C1=C(C)Nc2nnnn2C1c1ccccc1N1CCC(C(=O)OCC)CC1` (stereo not shown) [PT-484, ethyl 7-(2-(4-(ethoxycarbonyl)piperidin-1-yl)phenyl)-5-methyl-4,7-dihydrotetrazolo[1,5-a]pyrimidine-6-carboxylate], 36.1%.
On the same count and under the same terms, the same measure for `CCOC(=O)C1=C(C(F)(F)F)Nc2nnnn2C1c1cccs1` (stereo not shown) [PT-016, ethyl 7-(thiophen-2-yl)-5-(trifluoromethyl)-4,7-dihydrotetrazolo[1,5-a]pyrimidine-6-carboxylate]: 30.7%; for `CC1=C(C(=O)OCc2ccccc2)C(c2ccccc2-c2ccccc2C)n2nnnc2N1` (stereo not shown) [PT-344, benzyl 5-methyl-7-(2′-methylbiphenyl-2-yl)-4,7-dihydrotetrazolo[1,5-a]pyrimidine-6-carboxylate]: 44.6%; for `CCOC(=O)C1=C(C)Nc2ccnn2C1c1ccccc1OCCN(C)C` (stereo not shown) [PT-478, ethyl 7-(2-(2-(dimethylamino)ethoxy)phenyl)-5-methyl-4,7-dihydropyrazolo[1,5-a]pyrimidine-6-carboxylate]: 34.3%.
On the same count and under the same terms, as for `CC1=C(C(=O)OCc2ccc(I)cc2)C(c2cccc3ccccc23)n2nnnc2N1` (stereo not shown) [PT-029, 4-iodobenzyl 5-methyl-7-(naphthalen-1-yl)-4,7-dihydrotetrazolo[1,5-a]pyrimidine-6-carboxylate], the figure is 52.1%; as for `CCCC1=C(C(=O)OCC)C(c2ccsc2)C2=C(CC(C(C)C)CC2=O)N1` (stereo not shown) [PT-152, ethyl 7-isopropyl-5-oxo-2-propyl-4-(thiophen-3-yl)-1,4,5,6,7,8-hexahydroquinoline-3-carboxylate], 41.2%.

Staying with this test, now noted: read-out: Late INa % blk.
Turning to `CC1=C(C(=O)OCc2ccccc2)C(c2cccc(Oc3ccccc3)c2)n2nnnc2N1` (stereo not shown) [PT-024, benzyl 5-methyl-7-(3-phenoxyphenyl)-4,7-dihydrotetrazolo[1,5-a]pyrimidine-6-carboxylate], the inhibition at 10 µM is 72.6%.
For the compound `CC1=C(C(=O)OC2CCCc3ccccc32)C(c2cccc3ccccc23)n2nnnc2N1` (stereo not shown) [PT-001, 1,2,3,4-tetrahydronaphthalen-1-yl 5-methyl-7-(naphthalen-1-yl)-4,7-dihydrotetrazolo[1,5-a]pyrimidine-6-carboxylate], the inhibition at 10 µM was determined as 28.8%.
